This is an account of results in patent US20260250290A1 (BRISTOL-MYERS SQUIBB COMPANY, priority 2023, published 2026).

pIC50: −log10 of the molar value. Structures can show the parent of a compound that is named as a salt.

For the assay, the target named is T1, full length SGK1 (Homo sapiens, UniProt O00141).
T1 construct: 125 μM full length SGK1 (Life Technologies Part #PR7358A); purchased Life Technologies PR7358A
T1 sequence (O00141 1-431): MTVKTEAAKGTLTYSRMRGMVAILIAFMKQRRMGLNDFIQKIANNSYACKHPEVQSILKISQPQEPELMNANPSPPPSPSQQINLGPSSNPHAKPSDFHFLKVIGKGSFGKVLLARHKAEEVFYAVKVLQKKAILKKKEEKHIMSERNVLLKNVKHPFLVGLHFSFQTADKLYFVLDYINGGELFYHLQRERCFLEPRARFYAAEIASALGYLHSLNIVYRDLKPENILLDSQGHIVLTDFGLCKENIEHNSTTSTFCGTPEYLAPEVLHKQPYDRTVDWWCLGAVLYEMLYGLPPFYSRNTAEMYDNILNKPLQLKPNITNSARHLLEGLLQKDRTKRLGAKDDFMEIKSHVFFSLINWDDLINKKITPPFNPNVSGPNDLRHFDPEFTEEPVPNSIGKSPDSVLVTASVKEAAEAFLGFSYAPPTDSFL
The assay is described as follows: SGK1 inhibition Assay A (Caliper LabChip electrophoretic separation of fluorescent peptide substrate and phosphorylated product). In kind it is biochemical. The settings on record: Assay A; 20 μM ATP, 40 min incubation; read-out: SGK1 IC50.
By pIC50 is commonly meant −log10 of the IC50, conventionally taken in molar units. Consider `CN1CCC(Oc2cc(Cl)sc2C(=O)N[C@@H]2CCCN(c3cc(-c4cncnc4)n4ncnc(N)c34)C2)CC1` [Example 585, (R)-N-(1-(4-amino-7-(pyrimidin-5-yl)pyrrolo[2,1-f][1,2,4]triazin-5-yl)piperidin-3-yl)-5-chloro-3-((1-methylpiperidin-4-yl)oxy)thiophene-2-carboxamide], for which the pIC50 is 8.05.
The same measure for `CS(=O)(=O)c1ccc(-c2cc(N3CCC[C@@H](NC(=O)c4cccc(Br)c4)C3)c3c(N)ncnn23)cc1` [Example 85, (R)-N-(1-(4-amino-7-(4-(methylsulfonyl)phenyl)pyrrolo[2,1-f][1,2,4]triazin-5-yl)piperidin-3-yl)-3-bromobenzamide, TFA]: 7.57.
The same measure for `CC(=O)N1CC=C(c2cc(N3CCC[C@@H](NC(=O)N4CC[C@@H](O)C4)C3)c3c(N)ncnn23)C1` [Example 874, (R)—N—((R)-1-(7-(1-acetyl-2,5-dihydro-1H-pyrrol-3-yl)-4-aminopyrrolo[2,1-f][1,2,4]triazin-5-yl)piperidin-3-yl)-3-hydroxypyrrolidine-1-carboxamide]: 6.32; for `CC(=O)N1CC=C(c2cc(N3CCC[C@@H](NC(=O)c4ccnc(OCCN(C)C)c4)C3)c3c(N)ncnn23)C1` [Example 706, (R)-N-(1-(7-(1-acetyl-2,5-dihydro-1H-pyrrol-3-yl)-4-aminopyrrolo[2,1-f][1,2,4]triazin-5-yl)piperidin-3-yl)-2-(2-(dimethylamino)ethoxy) isonicotinamide]: 7.24; for `CC(=O)N1CC=C(c2cc(N3CCC[C@@H](NC(=O)c4cccc(N5CCN(C)CC5)n4)C3)c3c(N)ncnn23)C1` [Example 704, (R)-N-(1-(7-(1-acetyl-2,5-dihydro-1H-pyrrol-3-yl)-4-aminopyrrolo[2,1-f][1,2,4]triazin-5-yl)piperidin-3-yl)-6-(4-methylpiperazin-1-yl)picolinamide]: 7.96.
As for `Nc1ncnn2c(-c3ccnc(C(F)F)c3)cc(N3CCC[C@@H](NC(=O)c4sc(Cl)cc4OC4CCNCC4)C3)c12` [Example 588, (R)-N-(1-(4-amino-7-(2(difluoromethyl)pyridin-4-yl)pyrrolo[2,1-f][1,2,4]triazin-5-yl)piperidin-3-yl)-5-chloro-3-(piperidin-4-yloxy)thiophene-2-carboxamide], the figure is 8.70; as for `Nc1ncnn2c(-c3ccc(N4CCOCC4)cc3)cc(N3CCC[C@@H](NC(=O)c4ccc(Cl)s4)C3)c12` [Example 223, (R)-N-(1-(4-amino-7-(4-morpholinophenyl)pyrrolo [2,1-f][1,2,4]triazin-5-yl)piperidin-3-yl)-5-chlorothiophene-2-carboxamide, TFA], 6.70.
With `Nc1ncnn2c(-c3ccnc(C(F)F)c3)cc(N3CCC[C@@H](NC(=O)c4sc(C(F)F)cc4N4CC5(COC5)C4)C3)c12` [Example 345, (R)—N-(1-(4-amino-7-(2-(difluoromethyl)pyridin-4-yl)pyrrolo[2,1-f][1,2,4]triazin-5-yl)piperidin-3-yl)-5-(difluoromethyl)-3-(2-oxa-6-azaspiro[3.3]heptan-6-yl)thiophene-2-carboxamide], the pIC50 was 7.72.
Regarding `CC(=O)N1CC=C(c2cc(N3CCC[C@@H](NC(=O)c4cc(N5CCN(C)CC5)c(C)s4)C3)c3c(N)ncnn23)C1` [Example 270, (R)—N-(1-(7-(1-acetyl-2,5-dihydro-1H-pyrrol-3-yl)-4-aminopyrrolo[2,1-f][1,2,4]triazin-5-yl)piperidin-3-yl)-5-methyl-4-(4-methylpiperazin-1-yl)thiophene-2-carboxamide], the pIC50 is 7.31.
Consider `Cc1nc(C)c(C(=O)N[C@@H]2CCCN(c3cc(-c4cncnc4)n4ncnc(N)c34)C2)s1` [Example 511, (R)-N-(1-(4-amino-7-(pyrimidin-5-yl)pyrrolo[2,1-f][1,2,4]triazin-5-yl)piperidin-3-yl)-2,4-dimethylthiazole-5-carboxamide], for which the pIC50 is 6.35.
As for `Nc1ncnn2c(-c3ccc(NS(=O)(=O)c4cc(Cl)ccc4F)cc3)cc(N3CCC[C@@H](NC(=O)c4ccc(Cl)s4)C3)c12` [Example 346, (R)—N-(1-(4-amino-7-(4-((5-chloro-2-fluorophenyl)sulfonamido)phenyl)pyrrolo[2,1-f][1,2,4]triazin-5-yl)piperidin-3-yl)-5-chlorothiophene-2-carboxamide], the figure is 7.10.
As for `Nc1ncnn2c(-c3ccnc(F)c3)cc(N3CCC[C@@H](NC(=O)c4ccc(C(F)(F)F)s4)C3)c12` [Example 154, (R)-N-(1-(4-amino-7-(2-fluoropyridin-4-yl)pyrrolo[2,1-f][1,2,4]triazin-5-yl)piperidin-3-yl)-5-(trifluoromethyl)thiophene-2-carboxamide, TFA], the pIC50 was 8.15.
As for `CC(=O)N1CC=C(c2cc(N3CCC[C@@H](NC(=O)c4cccc(-n5cnnc5)c4)C3)c3c(N)ncnn23)C1` [Example 257, (R)—N-(1-(7-(1-acetyl-2,5-dihydro-1H-pyrrol-3-yl)-4-aminopyrrolo[2,1-f][1,2,4]triazin-5-yl)piperidin-3-yl)-3-(4H-1,2,4-triazol-4-yl)benzamide, TFA], the figure is 7.19.
The same measure for `CC(C)c1cc(C(=O)N[C@@H]2CCCN(c3cc(-c4ccnc(C(F)F)c4)n4ncnc(N)c34)C2)[nH]n1` [Example 486, (R)-N-(1-(4-amino-7-(2-(difluoromethyl)pyridin-4-yl)pyrrolo[2,1-f][1,2,4]triazin-5-yl)piperidin-3-yl)-3-isopropyl-1H-pyrazole-5-carboxamide]: 7.57.
For `COC(=O)N1CC=C(c2cc(N3CCC[C@@H](NC(=O)c4sc5ccncc5c4OCCN(C)C)C3)c3c(N)ncnn23)C1` [Example 668, methyl (R)-3-(4-amino-5-(3-(3-(2-(dimethylamino)ethoxy)thieno [3,2-c]pyridine-2-carboxamido)piperidin-1-yl)pyrrolo[2,1-f] [1,2,4]triazin-7-yl)-2,5-dihydro-1H-pyrrole-1-carboxylate], the pIC50 was 7.68.
With `CC(=O)N1CC=C(c2cc(N3CCC[C@@H](NC(=O)c4sc(-c5ccnc(F)c5)cc4OCCN(C)C)C3)c3c(N)ncnn23)C1` [Example 556, (R)-N-(1-(7-(1-acetyl-2,5-dihydro-1H-pyrrol-3-yl)-4-aminopyrrolo[2,1-f][1,2,4]triazin-5-yl)piperidin-3-yl)-3-(2-(dimethylamino)ethoxy)-5-(2-fluoropyridin-4-yl)thiophene-2-carboxamide], the pIC50 was 8.22.
`CC(=O)N1CC=C(c2cc(N3CCC[C@@H](NC(=O)c4sc(Cl)cc4OCC4CCCN4)C3)c3c(N)ncnn23)C1` (single isomer, unassigned) [Example 391E]: the negative-log IC50 (pIC50) is 8.40.
As for `Nc1ncnn2c(-c3ccc(Cl)cc3)cc(N3CCC[C@@H](NC(=O)c4ccc(Cl)s4)C3)c12` [Example 235], the figure is 7.43; as for `CC(=O)N1CC=C(c2cc(N3CCC[C@@H](NC(=O)c4cccc(OC5CN6CCC5CC6)n4)C3)c3c(N)ncnn23)C1` (stereo partly drawn) [Example 734, N-((R)-1-(7-(1-acetyl-2,5-dihydro-1H-pyrrol-3-yl)-4-aminopyrrolo[2,1-f][1,2,4]triazin-5-yl)piperidin-3-yl)-6-(quinuclidin-3-yloxy)picolinamide], 8.00; as for `COc1cccc(C(=O)N[C@@H]2CCCN(c3cc(C4=CCN(C(C)=O)C4)n4ncnc(N)c34)C2)n1` [Example 715, (R)-N-(1-(7-(1-acetyl-2,5-dihydro-1H-pyrrol-3-yl)-4-aminopyrrolo[2,1-f][1,2,4]triazin-5-yl)piperidin-3-yl)-6-methoxypicolinamide], 7.66.
The same measure for `Nc1ncnn2c(-c3ccc(=O)n(CC(F)F)c3)cc(N3CCC[C@@H](NC(=O)c4sc(C(F)F)cc4N4CC5(COC5)C4)C3)c12` [Example 316, (R)-N-(1-(4-amino-7-(1-(2,2-difluoroethyl)-6-oxo-1,6-dihydropyridin-3-yl)pyrrolo[2,1-f][1,2,4]triazin-5-yl)piperidin-3-yl)-5-(difluoromethyl)-3-(2-oxa-6-azaspiro[3.3]heptan-6-yl)thiophene-2-carboxamide]: 7.51; for `Nc1ncnn2c(-c3cncnc3)cc(N3CCC[C@@H](NC(=O)c4cc5ccccc5s4)C3)c12` [Example 646, (R)-N-(1-(4-amino-7-(pyrimidin-5-yl)pyrrolo[2,1-f][1,2,4]triazin-5-yl)piperidin-3-yl)benzo[b]thiophene-2-carboxamide]: 8.10; for `CC(=O)N1CC=C(c2cc(N3CCC[C@@H](NC(=O)c4ccc(CN5CCOCC5)cc4)C3)c3c(N)ncnn23)C1` [Example 463, (R)-N-(1-(7-(1-acetyl-2,5-dihydro-1H-pyrrol-3-yl)-4-aminopyrrolo[2,1-f][1,2,4]triazin-5-yl)piperidin-3-yl)-4-(morpholinomethyl)benzamide]: 6.40.
The same measure for `CC(C)(O)c1ncc(-c2cc(N3CCC[C@@H](NC(=O)c4ccc(Cl)s4)C3)c3c(N)ncnn23)cn1` [Example 533, (R)-N-(1-(4-amino-7-(2-(2-hydroxypropan-2-yl)pyrimidin-5-yl)pyrrolo[2,1-f][1,2,4]triazin-5-yl)piperidin-3-yl)-5-chlorothiophene-2-carboxamide]: 6.14; for `CC(=O)N1CC=C(c2cc(N3CCC[C@@H](NC(=O)c4sc(Cl)cc4OCCN(C)C)C3)c3c(N)ncnn23)C1` [Example 175, (R)—N-(1-(7-(1-acetyl-2,5-dihydro-1H-pyrrol-3-yl)-4-aminopyrrolo[2,1-f][1,2,4]triazin-5-yl)piperidin-3-yl)-5-chloro-3-(2-(dimethylamino)ethoxy)thiophene-2-carboxamide, 2 TFA]: 8.40.
